Experimental findings from ChEMBL document CHEMBL1649252, “Plasmodium falciparum drug resistance in Madagascar: facing the spread of unusual pfdhfr and pfmdr-1 haplotypes and the decrease of dihydroartemisinin susceptibility” (Antimicrob Agents Chemother, 2009) are described below.

Test [1] has as its system Plasmodium falciparum. The experiment in a line: Antimalarial activity against Plasmodium falciparum assessed as parasite growth inhibition after 48 hrs by [3H]hypoxanthin incorporation assay. In kind it is functional, organism-based.
The test system of test [2] is Plasmodium falciparum. Put plainly: Antimalarial activity against Plasmodium falciparum assessed as resistant isolates. It counts as functional.

A word on the IC50: it is the concentration that inhibits the measured activity by half. Turning to `C[C@H]1[C@@H](O)O[C@@H]2O[C@@]3(C)CC[C@H]4[C@H](C)CC[C@@H]1[C@@]24OO3` [ARTENIMOL], the IC50 in the test on Plasmodium falciparum [1] is 0.95 nM. Also, the Activity in the test with Plasmodium falciparum [2] was determined as 0%.

In the case of `CCN(CC)CCCC(C)Nc1ccnc2cc(Cl)ccc12` (centres undefined) [CHLOROQUINE], the Activity in the test on Plasmodium falciparum [2] came out at 3.2%.

On to `CCNCc1cc(Nc2ccnc3cc(Cl)ccc23)ccc1O` [DESETHYL AMODIAQUINE], for which the IC50 with Plasmodium falciparum [1] stood at 8.3 nM. In addition, in the test on Plasmodium falciparum [2], the Activity is on record as 0.5%.

In the case of `OC(c1cc(C(F)(F)F)nc2c(C(F)(F)F)cccc12)C1CCCCN1` (centres undefined) [MEFLOQUINE], the IC50 in the test on Plasmodium falciparum [1] worked out at 6.7 nM. Besides, in the test with Plasmodium falciparum [2], the Activity stood at 0.4%.

Take `C=C[C@H]1CN2CC[C@H]1C[C@H]2[C@H](O)c1ccnc2ccc(OC)cc12` [QUININE]: the IC50 with Plasmodium falciparum [1] was 53.7 nM. Also, in the test on Plasmodium falciparum [2], the Activity is 0%.
